Series [1] addresses T1, human Edg-1 (S1P1) (Homo sapiens, UniProt P21453).
T1 construct: expressed in transfected cells; host or cells: HEK-293
Put plainly: S1P1 binding assay: inhibition of [33P]-S1P binding to membrane fraction of HEK-293 cells transferred with the human Edg-1 (S1P1) gene. The following applies: for IC50: [33P]-S1P 0.1 nM, human Edg-1 (S1P1) HEK-293 membrane fraction, 1 h at 30° C., read-out: IC50 (concentration at which binding in the absence of the test compound was inhibited by 50%). The method, boiled down:
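Membranes from S1P1-transfected HEK-293 cells incubated 1 h at 30° C in pH 7.4 Tris buffer with fatty acid-free BSA, 0.1 nM [33P]-S1P and test compound (0.1% DMSO). Filter-bound radioactivity was counted; inhibition corrected for binding to untransfected-cell membranes, and IC50 derived from concentration series.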

The mark [2] stands for this setting: test compound at 10 μM, inhibition of [33P]-S1P binding to the membrane fraction of HEK-293 cells expressing human Edg-1 (S1P1).
Setting [3] is: test compound 10 μM, inhibition of [33P]-S1P binding, membrane fraction.

T1 sequence (P21453 whole entry): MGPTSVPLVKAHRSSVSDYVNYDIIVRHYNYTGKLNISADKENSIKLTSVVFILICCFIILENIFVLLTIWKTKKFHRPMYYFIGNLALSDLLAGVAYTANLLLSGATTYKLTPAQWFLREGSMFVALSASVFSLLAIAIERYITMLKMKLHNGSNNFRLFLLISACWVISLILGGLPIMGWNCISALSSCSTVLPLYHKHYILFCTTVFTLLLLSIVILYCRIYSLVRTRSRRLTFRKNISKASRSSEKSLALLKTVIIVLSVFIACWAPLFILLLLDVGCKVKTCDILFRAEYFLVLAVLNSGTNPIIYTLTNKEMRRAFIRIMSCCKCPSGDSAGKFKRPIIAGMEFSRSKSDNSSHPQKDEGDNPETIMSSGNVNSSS

With `CCn1c(Oc2ccc(F)cc2)nnc1[C@@H](C)NS(=O)(=O)c1ccc(Br)c(C)c1` [Compound 110], the melting point (in general, the temperature of the solid-liquid transition) was in the range of 187.5 to 188.5 °C. Further, the inhibition (usually the relative decrease from the control value, in per cent) at 10 µM in series [1] (setting [2]) was 104%.

In turn, `CCn1c(Oc2cccc(N3CCN(C)CC3)c2)nnc1[C@@H](C)NS(=O)(=O)c1ccc(Br)c(C)c1` [Compound 111] came in with a melting point of 204 to 205 °C. For the same molecule, in series [1], the IC50 is at most 10 nM. Further, the inhibition at 10 µM in series [1] (setting [2]) amounted to 109%.

`CCn1c(Oc2cccc(N3CCN(C)CC3)c2)nnc1[C@@H](C)NS(=O)(=O)c1ccc(Br)c(Br)c1` [Compound 112] yielded a melting point of 171 to 173 °C. Moreover, in series [1], the IC50 is at most 10 nM. Further, the inhibition at 10 µM in series [1] (setting [2]) worked out at 99.2%.

As to `CCn1c(Oc2cccc(C(=O)O)c2)nnc1[C@@H](C)NS(=O)(=O)c1ccc(Cl)c(Cl)c1` [Compound 113, 3-[5-[(R)-1-(3,4-Dichlorobenzenesulfonylamino)-ethyl]-4-ethyl-4H-[1,2,4]triazol-3-yloxy]-benzoic acid], the melting point is 183 to 185 °C. For the same molecule, in series [1] (setting [2]), the inhibition at 10 µM was determined as 74.2%.

The molecule `CCn1c(Oc2cccc(O)c2)nnc1[C@@H](C)NS(=O)(=O)c1ccc(Cl)c(Cl)c1` [Compound 114, 3,4-Dichloro-N-[(R)-1-[4-ethyl-5-(3-hydroxyphenoxy)-4H-[1,2,4]triazol-3-yl]-ethyl]-benzenesulfonamide] showed a melting point of 185 to 186 °C. The inhibition at 10 µM in series [1] (setting [2]) was 94.5%.

In turn, `CCn1c(Nc2ccc(F)cc2)nnc1[C@@H](C)NS(=O)(=O)c1ccc(Cl)c(Cl)c1` [Compound 116] gave a melting point of 192 to 195 °C. The inhibition at 10 µM in series [1] (setting [2]) turned out to be 83.1%.

With `CCOc1ccc2c(Oc3nnc([C@@H](C)NS(=O)(=O)c4ccc(Cl)c(Cl)c4)n3CC)csc2c1` [Compound 117], the melting point is 153.5 to 155.5 °C. In addition, in series [1] (setting [2]), the inhibition at 10 µM was found to be 87.1%.

The molecule `CCn1c(Oc2cccc(N3CCN(C)CC3)c2)nnc1[C@@H](C)NS(=O)(=O)c1ccc2c(Cl)cccc2c1` [Compound 120] came in with a melting point of 211.5 to 216.5 °C. For the same molecule, the IC50 in series [1] stood at 1.7 nM. In addition, the inhibition at 10 µM in series [1] (setting [2]) is 93%.

The molecule `CCn1c(Oc2cccc(N3CCN(C)CC3)c2)nnc1[C@@H](C)NS(=O)(=O)c1ccc2ccccc2c1` [Compound 121] came in with a melting point of 195.5 to 198.5 °C. For the same molecule, in series [1], the IC50 is at most 10 nM. Besides, the inhibition at 10 µM in series [1] (setting [2]) worked out at 103%.

As for `CCn1c(Oc2ccc(F)cc2)nnc1[C@@H](C)NS(=O)(=O)c1ccc2ccccc2c1` [Compound 122], the melting point lay in the range of 167 to 170 °C. The IC50 in series [1] was at most 35 nM. Further, the inhibition at 10 µM in series [1] (setting [2]) was 81.9%.

In turn, `C[C@@H](NS(=O)(=O)c1ccc(Cl)c(Cl)c1)c1nnc(Oc2cccc(N3CCN(C)CC3)c2)n1C1CC1` [Compound 123] came in with a melting point of 162 to 165 °C. In addition, the IC50 in series [1] was at most 35 nM. The inhibition at 10 µM in series [1] (setting [2]) worked out at 97.1%.

As to `C[C@@H](NS(=O)(=O)c1ccc(Cl)c(Cl)c1)c1nnc(Oc2ccc(F)cc2)n1C1CC1` [Compound 124], the melting point fell in the range of 178.5 to 180 °C. Also, the inhibition at 10 µM in series [1] (setting [2]) turned out to be 97.4%.

The molecule `C[C@@H](NS(=O)(=O)c1ccc(Cl)c(Cl)c1)c1nnc(Oc2ccc3cc[nH]c3c2)n1C1CC1` [Compound 125] registered a melting point of 253.5 to 254.5 °C. Further, in series [1], the IC50 is at most 35 nM. For the same molecule, the inhibition at 10 µM in series [1] (setting [2]) turned out to be 94.3%.

The molecule `CCn1c(Oc2ccc(F)cc2)nnc1[C@@H](C)NS(=O)(=O)c1ccc(C)c(C)c1` [Compound 126] registered a melting point of 176.5 to 178 °C. In addition, the inhibition at 10 µM in series [1] (setting [2]) worked out at 91.8%.

In the case of `CCn1c(Oc2ccc(F)cc2)nnc1[C@@H](C)NS(=O)(=O)c1ccc(C(F)(F)F)cc1` [Compound 128], the melting point lay within 182.5 to 183.5 °C. Also, the inhibition at 10 µM in series [1] (setting [2]) was found to be 90.7%.

With `CCn1c(Oc2ccc3cc[nH]c3c2)nnc1[C@@H](C)NS(=O)(=O)c1ccc(C)c(C)c1` [Compound 129], the melting point is 96 to 104 °C. Also, the IC50 in series [1] worked out at 20 nM. The inhibition at 10 µM in series [1] (setting [2]) worked out at 96.8%.

Consider `CCn1c(Oc2ccc3cc[nH]c3c2)nnc1[C@@H](C)NS(=O)(=O)c1ccc2ccccc2c1` [Compound 130], for which the melting point lay within 107 to 114 °C. Also, the IC50 in series [1] was found to be 2.9 nM. In addition, in series [1] (setting [2]), the inhibition at 10 µM was determined as 98.9%.

The molecule `CCn1c(Oc2ccc3cc[nH]c3c2)nnc1[C@@H](C)NS(=O)(=O)c1cc(C)c(Cl)cc1Cl` [Compound 131] displayed a melting point of 102 to 110.5 °C. In series [1], the IC50 was at most 35 nM. In addition, the inhibition at 10 µM in series [1] (setting [2]) is 97.3%.

Molecule `CCn1c(Oc2ccc3cc[nH]c3c2)nnc1[C@@H](C)NS(=O)(=O)c1ccc(C)c(Cl)c1` [Compound 132] returned a melting point of 95 to 104 °C. The IC50 in series [1] is at most 10 nM. Moreover, the inhibition at 10 µM in series [1] (setting [2]) came to 99.5%.

`CCn1c(Oc2cccc(N3CCN(C)CC3)c2)nnc1[C@@H](C)NS(=O)(=O)c1ccc(C)c(Cl)c1` [Compound 133]: the melting point lay in the range of 164 to 169.5 °C. The IC50 in series [1] is at most 10 nM. Moreover, the inhibition at 10 µM in series [1] (setting [2]) was found to be 101%.

In turn, `CCn1c(Oc2ccc3cc[nH]c3c2)nnc1[C@@H](C)NS(=O)(=O)c1ccc(Cl)c(Cl)c1Cl` [Compound 134] had a melting point of 108.5 to 114.5 °C. Besides, the IC50 in series [1] was at most 35 nM. Moreover, the inhibition at 10 µM in series [1] (setting [2]) was 101%.

Consider `CCn1c(Oc2ccc3cc[nH]c3c2)nnc1[C@@H](C)NS(=O)(=O)c1cccc(C(F)(F)F)c1` [Compound 135], for which the melting point was in the range of 188.5 to 192 °C. In addition, in series [1] (setting [2]), the inhibition at 10 µM was determined as 101%.

Regarding `CCn1c(Oc2ccc3cc[nH]c3c2)nnc1[C@@H](C)NS(=O)(=O)c1ccc(C(F)(F)F)cc1` [Compound 136], the melting point fell in the range of 100 to 106 °C. Further, in series [1], the IC50 came out at 8.1 nM. Further, in series [1] (setting [2]), the inhibition at 10 µM is 96.5%.

As for `CCn1c(Oc2ccc(F)cc2)nnc1[C@@H](C)NS(=O)(=O)c1ccc2c(Cl)cccc2c1` [Compound 137], the melting point is 173.5 to 177 °C. The IC50 in series [1] is at most 10 nM. In addition, in series [1] (setting [2]), the inhibition at 10 µM is 102%.

Turning to `CCn1c(Oc2ccc(OC)cc2)nnc1[C@@H](C)NS(=O)(=O)c1ccc2c(Cl)cccc2c1` [Compound 138], the melting point fell in the range of 167.5 to 169 °C. Also, the IC50 in series [1] is at most 10 nM. For the same molecule, in series [1] (setting [2]), the inhibition at 10 µM came out at 99.6%.

Molecule `CCn1c(Oc2ccc(Cl)cc2)nnc1[C@@H](C)NS(=O)(=O)c1ccc2c(Cl)cccc2c1` [Compound 139] gave a melting point of 174 to 177 °C. In addition, in series [1], the IC50 was at most 10 nM. Further, the inhibition at 10 µM in series [1] (setting [2]) worked out at 101%.

Molecule `CCn1c(Oc2ccc(OC)cc2)nnc1[C@@H](C)NS(=O)(=O)c1ccc2ccccc2c1` [Compound 140] displayed a melting point of 110 to 119 °C. The IC50 in series [1] is at most 10 nM. The inhibition at 10 µM in series [1] (setting [2]) was found to be 102%.

In turn, `CCn1c(Oc2ccc(Cl)cc2)nnc1[C@@H](C)NS(=O)(=O)c1ccc2ccccc2c1` [Compound 141] gave a melting point of 169 to 173 °C. Moreover, the IC50 in series [1] was at most 35 nM. Also, the inhibition at 10 µM in series [1] (setting [2]) worked out at 105%.

In turn, `CCn1c(Oc2cccc(N3CCN(C)CC3)c2)nnc1[C@@H](C)NS(=O)(=O)c1ccc(C(F)(F)F)cc1` [Compound 142] displayed a melting point of 183 to 184 °C. For the same molecule, the IC50 in series [1] was at most 35 nM. For the same molecule, in series [1] (setting [2]), the inhibition at 10 µM is 98.1%.

On to `CCn1c(Oc2cccc(N3CCN(C)CC3)c2)nnc1[C@@H](C)NS(=O)(=O)c1ccc(Cl)c(Cl)c1Cl` [Compound 143], for which the melting point was in the range of 144 to 145 °C. The IC50 in series [1] amounted to 7.3 nM. Also, in series [1] (setting [2]), the inhibition at 10 µM worked out at 99.9%.

`CCn1c(Oc2cccc(N3CCN(C)CC3)c2)nnc1[C@@H](C)NS(=O)(=O)c1cc2ccccc2s1` [Compound 144] came in with a melting point of 187 to 188 °C. In addition, the IC50 in series [1] came to 7.9 nM. The inhibition at 10 µM in series [1] (setting [2]) amounted to 99.4%.

In turn, `CCn1c(Oc2cccc(N3CCN(C)CC3)c2)nnc1[C@@H](C)NS(=O)(=O)c1cc(F)cc(Cl)c1C` [Compound 145] had a melting point of 150 to 152 °C. In addition, in series [1], the IC50 was at most 35 nM. Also, in series [1] (setting [2]), the inhibition at 10 µM turned out to be 101%.

`CCn1c(Oc2cccc(N3CCN(C)CC3)c2)nnc1[C@@H](C)NS(=O)(=O)/C=C/c1ccccc1` [Compound 146] came in with a melting point of 121 to 122 °C. Also, the IC50 in series [1] worked out at 12 nM. In series [1] (setting [2]), the inhibition at 10 µM was 102%.

`CCn1c(Oc2cccc(NS(C)(=O)=O)c2)nnc1[C@@H](C)NS(=O)(=O)c1ccc2ccccc2c1` [Compound 147] displayed a melting point of 141 to 143 °C. Further, the IC50 in series [1] was at most 10 nM. The inhibition at 10 µM in series [1] (setting [2]) was determined as 103%.

For `CCn1c(Oc2cccc(NS(C)(=O)=O)c2)nnc1[C@@H](C)NS(=O)(=O)c1ccc2c(Cl)cccc2c1` [Compound 148], the melting point lay in the range of 154.5 to 155.5 °C. Besides, the IC50 in series [1] was found to be 1.9 nM. The inhibition at 10 µM in series [1] (setting [2]) amounted to 102%.

Molecule `CCC(NS(=O)(=O)c1ccc(Cl)c(Cl)c1)c1nnc(Oc2ccc(C)cc2)n1CC` (centres unmarked) [Compound 149] registered a melting point of 212 to 214.5 °C. The IC50 in series [1] is 7.8 nM. For the same molecule, the inhibition at 10 µM in series [1] (setting [2]) stood at 101%.

In turn, `CCn1c(Oc2cccc(N3CCN(C(C)C)CC3)c2)nnc1[C@@H](C)NS(=O)(=O)c1ccc2c(Cl)cccc2c1` [Compound 663] yielded a melting point of 210 to 217 °C. The IC50 in series [1] was at most 10 nM. In series [1] (setting [3]), the inhibition at 10 µM came out at 99.5%.

`CCn1c(Oc2cccc(N3CCN(C)CC3)c2)nnc1[C@@H](C)NS(=O)(=O)c1ccc2cc(Cl)ccc2c1` [Compound 664]: the melting point lay in the range of 218 to 221.5 °C. Also, the inhibition at 10 µM in series [1] (setting [3]) was 85.4%.
